Assay results taken from ChEMBL document CHEMBL5291721, “A preclinical secondary pharmacology resource illuminates target-adverse drug reaction associations of marketed drugs” (Nat Commun, 2023).

Experiments:
[1] = target: Histamine H1 receptor (Homo sapiens, UniProt P35367)
[2] = target: T1, Alpha-2A adrenergic receptor (Homo sapiens, UniProt P08913); type: functional, cell-based
T1 sequence (P08913 whole entry): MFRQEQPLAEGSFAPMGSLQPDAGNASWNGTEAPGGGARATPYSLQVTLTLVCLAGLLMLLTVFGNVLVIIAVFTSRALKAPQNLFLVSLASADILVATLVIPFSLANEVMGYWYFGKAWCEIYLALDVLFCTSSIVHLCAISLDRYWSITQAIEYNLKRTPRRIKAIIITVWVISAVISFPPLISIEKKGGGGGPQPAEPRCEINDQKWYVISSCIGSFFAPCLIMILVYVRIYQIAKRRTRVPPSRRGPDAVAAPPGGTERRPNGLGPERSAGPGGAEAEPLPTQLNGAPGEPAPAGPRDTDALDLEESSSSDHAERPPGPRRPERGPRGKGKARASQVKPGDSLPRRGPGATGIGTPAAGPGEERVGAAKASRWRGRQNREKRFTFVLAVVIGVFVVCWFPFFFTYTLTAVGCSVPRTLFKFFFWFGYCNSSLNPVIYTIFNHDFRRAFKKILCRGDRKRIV

[3] = target: T2, Adenosine receptor A1 (Homo sapiens, UniProt P30542)
T2 sequence (P30542 whole entry): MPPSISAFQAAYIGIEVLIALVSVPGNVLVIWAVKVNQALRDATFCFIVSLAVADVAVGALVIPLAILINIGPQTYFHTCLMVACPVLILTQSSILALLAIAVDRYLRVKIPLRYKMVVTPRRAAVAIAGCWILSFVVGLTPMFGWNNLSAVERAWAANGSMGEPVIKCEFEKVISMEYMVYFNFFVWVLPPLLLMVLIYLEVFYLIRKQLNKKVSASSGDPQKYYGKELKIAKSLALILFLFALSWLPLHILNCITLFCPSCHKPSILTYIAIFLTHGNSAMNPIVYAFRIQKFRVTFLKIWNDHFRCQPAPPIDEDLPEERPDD

[4] = target: T3, Cholecystokinin receptor type A (Homo sapiens, UniProt P32238)
T3 sequence (P32238 whole entry): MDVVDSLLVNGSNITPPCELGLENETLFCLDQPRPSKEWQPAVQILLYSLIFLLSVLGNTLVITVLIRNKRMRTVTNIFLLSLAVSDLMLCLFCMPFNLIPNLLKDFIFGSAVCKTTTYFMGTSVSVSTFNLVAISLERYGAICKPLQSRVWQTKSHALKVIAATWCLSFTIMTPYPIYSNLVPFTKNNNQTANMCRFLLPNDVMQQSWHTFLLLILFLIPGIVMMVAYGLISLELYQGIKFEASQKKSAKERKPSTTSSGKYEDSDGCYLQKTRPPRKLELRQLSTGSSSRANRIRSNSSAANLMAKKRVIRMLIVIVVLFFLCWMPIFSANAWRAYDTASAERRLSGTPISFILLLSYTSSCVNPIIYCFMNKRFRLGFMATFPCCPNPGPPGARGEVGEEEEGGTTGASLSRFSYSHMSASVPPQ

[5] = target: T4, Alpha-1A adrenergic receptor (Homo sapiens, UniProt P35348); type: functional, cell-based
T4 sequence (P35348 whole entry): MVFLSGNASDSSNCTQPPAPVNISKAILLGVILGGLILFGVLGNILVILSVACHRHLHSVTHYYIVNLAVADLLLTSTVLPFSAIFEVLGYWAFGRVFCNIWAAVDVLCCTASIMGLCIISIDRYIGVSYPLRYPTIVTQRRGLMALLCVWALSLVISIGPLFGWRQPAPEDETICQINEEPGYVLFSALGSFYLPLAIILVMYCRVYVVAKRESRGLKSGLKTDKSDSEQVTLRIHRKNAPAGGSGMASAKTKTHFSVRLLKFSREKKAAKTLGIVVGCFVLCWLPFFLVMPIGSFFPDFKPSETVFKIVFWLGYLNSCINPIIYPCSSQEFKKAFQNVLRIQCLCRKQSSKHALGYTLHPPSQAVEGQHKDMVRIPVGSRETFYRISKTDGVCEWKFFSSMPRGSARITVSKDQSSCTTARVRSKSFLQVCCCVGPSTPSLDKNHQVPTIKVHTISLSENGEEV

[6] = target: Mu-type opioid receptor (Homo sapiens, UniProt P35372)
Chain of Mu-type opioid receptor (P35372 whole entry): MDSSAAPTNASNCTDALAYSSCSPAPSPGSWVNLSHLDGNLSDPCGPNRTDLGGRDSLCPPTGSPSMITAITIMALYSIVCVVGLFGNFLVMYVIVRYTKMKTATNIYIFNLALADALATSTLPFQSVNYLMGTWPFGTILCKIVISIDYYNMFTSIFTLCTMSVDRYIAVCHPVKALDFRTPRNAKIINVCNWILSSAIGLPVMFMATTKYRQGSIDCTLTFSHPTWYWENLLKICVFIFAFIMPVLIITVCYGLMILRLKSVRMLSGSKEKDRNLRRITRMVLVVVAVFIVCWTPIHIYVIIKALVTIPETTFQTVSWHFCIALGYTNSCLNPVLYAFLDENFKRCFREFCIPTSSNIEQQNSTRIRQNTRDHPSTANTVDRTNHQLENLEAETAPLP

[7] = target: T4, Alpha-1A adrenergic receptor
[8] = target: Melanocortin receptor 4 (Homo sapiens, UniProt P32245)
Chain of Melanocortin receptor 4 (P32245 whole entry): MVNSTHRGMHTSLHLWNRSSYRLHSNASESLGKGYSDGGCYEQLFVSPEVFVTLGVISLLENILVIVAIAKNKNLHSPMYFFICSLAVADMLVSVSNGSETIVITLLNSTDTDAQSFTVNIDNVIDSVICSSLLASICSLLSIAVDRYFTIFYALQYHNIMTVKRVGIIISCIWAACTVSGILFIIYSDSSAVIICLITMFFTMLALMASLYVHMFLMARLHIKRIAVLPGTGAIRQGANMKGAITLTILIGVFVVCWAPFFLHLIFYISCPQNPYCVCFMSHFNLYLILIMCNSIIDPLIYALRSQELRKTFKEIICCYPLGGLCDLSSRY

[9] = target: Cannabinoid receptor 1 (Homo sapiens, UniProt P21554)
Chain of Cannabinoid receptor 1 (P21554 whole entry): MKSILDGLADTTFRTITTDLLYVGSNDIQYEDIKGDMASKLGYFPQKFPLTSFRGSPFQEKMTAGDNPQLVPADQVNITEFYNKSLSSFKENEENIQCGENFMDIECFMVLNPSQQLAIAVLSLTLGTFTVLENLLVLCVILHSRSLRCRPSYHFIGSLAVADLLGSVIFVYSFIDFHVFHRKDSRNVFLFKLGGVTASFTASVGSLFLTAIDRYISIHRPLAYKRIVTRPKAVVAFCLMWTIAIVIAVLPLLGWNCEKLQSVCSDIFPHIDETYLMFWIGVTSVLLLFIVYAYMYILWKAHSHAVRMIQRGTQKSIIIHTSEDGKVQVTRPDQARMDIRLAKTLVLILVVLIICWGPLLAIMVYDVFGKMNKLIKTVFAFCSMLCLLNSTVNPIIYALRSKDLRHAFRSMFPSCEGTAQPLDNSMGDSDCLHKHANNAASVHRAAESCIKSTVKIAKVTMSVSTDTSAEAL
Note: assay procedure not described here.

Chain of Histamine H1 receptor (P35367 whole entry): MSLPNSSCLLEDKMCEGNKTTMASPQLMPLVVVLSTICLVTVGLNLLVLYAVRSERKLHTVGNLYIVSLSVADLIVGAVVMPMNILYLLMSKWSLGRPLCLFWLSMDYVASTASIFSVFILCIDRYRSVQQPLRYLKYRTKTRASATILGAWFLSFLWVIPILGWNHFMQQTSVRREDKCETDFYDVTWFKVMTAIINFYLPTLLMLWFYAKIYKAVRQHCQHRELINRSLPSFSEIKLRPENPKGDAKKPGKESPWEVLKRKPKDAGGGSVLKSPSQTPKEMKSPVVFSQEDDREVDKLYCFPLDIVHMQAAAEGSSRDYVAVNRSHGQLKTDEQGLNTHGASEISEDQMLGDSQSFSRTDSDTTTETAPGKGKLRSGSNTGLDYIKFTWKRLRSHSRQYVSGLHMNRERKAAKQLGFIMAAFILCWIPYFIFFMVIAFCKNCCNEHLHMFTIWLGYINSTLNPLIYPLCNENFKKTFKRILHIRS

Row | Molecule | AC50 [1] [µM] | AC50 [2] [µM] | AC50 [3] [µM] | AC50 [4] [µM] | AC50 [5] [µM] | AC50 [6] [µM] | AC50 [7] [µM] | AC50 [8] [µM] | AC50 [9] [µM]
1 | O=C(C[S+]([O-])C(c1ccccc1)c1ccccc1)NO (stereo not drawn) | > 30 | > 30 | > 30 | > 30 | > 30 | – | – | – | –
2 | COc1ccc2c(c1)c(CC(=O)OCC(=O)O)c(C)n2C(=O)c1ccc(Cl)cc1 [ACEMETACIN] | – | > 30 | > 30 | > 30 | > 30 | – | – | – | –
3 | CC(=O)OCC(=O)[C@@]12OC3(CCCC3)O[C@@H]1C[C@H]1[C@@H]3CCC4=CC(=O)C=C[C@]4(C)[C@@]3(F)[C@@H](O)C[C@@]12C [AMCINONIDE] | > 10 | > 10 | > 10 | > 10 | – | > 30 | > 10 | > 10 | 4.25
4 | CN1C(=O)COc2c(C(=O)NC3CN4CCC3CC4)cc(Cl)cc21 (stereo not drawn) [AZASETRON] | – | > 10 | > 30 | > 30 | > 30 | – | – | – | –
5 | Cc1cc2c(OCC(CNC(C)(C)C)OC(=O)c3ccccc3)cccc2[nH]1 (stereo not drawn) [BOPINDOLOL] | – | > 30 | > 30 | > 30 | > 30 | – | – | – | –
6 | CCCCN1CCCCC1C(=O)Nc1c(C)cccc1C (stereo not drawn) [BUPIVACAINE] | – | > 30 | > 30 | > 30 | – | – | – | – | –
7 | CCOC(=O)[C@H](CCc1ccccc1)N[C@H]1CCCN2CCC[C@@H](C(=O)O)N2C1=O [CILAZAPRIL] | > 30 | > 30 | > 30 | > 30 | > 30 | – | – | – | –
8 | CCOc1cc(N)c([N+](=O)[O-])cc1C(=O)NC1CCN(CC2CC=CCC2)CC1 (stereo not drawn) [CINITAPRIDE] | 27 | > 30 | > 30 | > 30 | > 30 | – | – | – | –
9 | CC(C)(Oc1ccc(C2CC2(Cl)Cl)cc1)C(=O)O (stereo not drawn) [CIPROFIBRATE] | – | > 30 | > 30 | > 30 | > 30 | – | – | – | –
10 | CN1C(=O)CC(=O)N(c2ccccc2)c2cc(Cl)ccc21 [CLOBAZAM] | > 10 | > 10 | > 10 | > 10 | – | > 30 | > 10 | > 10 | > 10
11 | COC(=O)[C@H]1[C@@H](OC(=O)c2ccccc2)C[C@@H]2CC[C@H]1N2C [COCAINE] | > 30 | > 30 | > 30 | > 30 | > 30 | – | – | – | –
12 | Cc1c(O)c(=O)ccn1C [DEFERIPRONE] | – | > 30 | > 30 | > 30 | > 30 | – | – | – | –
13 | CC(=O)O[C@@]12CO[C@@H]1C[C@H](O)[C@@]1(C)C(=O)[C@H](O)C3=C(C)[C@@H](OC(=O)[C@H](O)[C@@H](NC(=O)OC(C)(C)C)c4ccccc4)C[C@@](O)([C@@H](OC(=O)c4ccccc4)[C@H]21)C3(C)C [DOCETAXEL ANHYDROUS] | – | > 30 | > 30 | > 30 | – | – | > 30 | > 30 | > 30
14 | CCCCCCCCCCCC[N+](C)(C)CCOc1ccccc1 [DOMIPHEN] | 12 | 13 | > 30 | > 30 | – | – | – | – | –
15 | C#CC1(OC(N)=O)CCCCC1 [ETHINAMATE] | > 10 | > 10 | > 10 | > 10 | – | > 30 | > 10 | > 10 | > 10
16 | COc1c(N2CCNC(C)C2)c(F)cc2c(=O)c(C(=O)O)cn(C3CC3)c12 (stereo not drawn) [GATIFLOXACIN] | – | > 10 | > 10 | > 10 | – | > 30 | > 30 | > 10 | > 10
17 | O=C(CCCCC(=O)Nc1c(I)cc(I)c(C(=O)O)c1I)Nc1c(I)cc(I)c(C(=O)O)c1I [IODIPAMIDE] | > 10 | > 10 | > 10 | > 10 | – | > 30 | > 30 | > 10 | > 10
18 | COc1ccc(C(=O)NCc2ccc(OCCN(C)C)cc2)cc1OC [ITOPRIDE] | > 30 | > 30 | > 30 | > 30 | > 30 | – | – | – | –
19 | CN1CC[C@]23CCCC[C@H]2[C@H]1Cc1ccc(O)cc13 [LEVORPHANOL] | > 30 | > 10 | > 10 | > 10 | – | – | – | > 10 | > 10
20 | COc1ccccc1OCC(O)COC(N)=O (stereo not drawn) [METHOCARBAMOL] | – | > 10 | > 10 | > 10 | – | > 30 | > 10 | > 10 | > 10
21 | O=C(OCCN1CCOCC1)c1cccnc1Nc1cccc(C(F)(F)F)c1 [MORNIFLUMATE] | > 30 | > 30 | > 30 | > 30 | > 30 | – | – | – | –
22 | CCCCCCCCOc1ccccc1C(=O)Nc1ccc(C(=O)OCC[N+](C)(CC)CC)cc1 [OTILONIUM BROMIDE] | 19 | > 10 | > 30 | > 30 | – | – | – | – | –
23 | Cc1nc2ccc(CN(C)c3ccc(C(=O)N[C@@H](CCC(=O)O)C(=O)O)s3)cc2c(=O)[nH]1 [RALTITREXED] | > 30 | > 30 | > 30 | > 30 | > 30 | – | – | – | > 30
24 | C#CCN[C@@H]1CCc2ccccc21 [RASAGILINE] | > 30 | > 30 | > 30 | > 30 | – | – | 20 | > 30 | > 30
25 | C1COC(NC(C2CC2)C2CC2)=N1 [RILMENIDINE] | > 10 | 1.31 | > 30 | > 30 | – | > 30 | 4.39 | > 30 | –
26 | C#CCN(C)[C@H](C)Cc1ccccc1 [SELEGILINE] | – | > 10 | > 10 | > 10 | > 30 | > 30 | 12.7 | > 10 | > 10
27 | O=C1NCCN1CCN1CCC(c2cn(-c3ccc(F)cc3)c3ccc(Cl)cc23)CC1 [SERTINDOLE] | – | – | > 30 | > 30 | 0.64 | – | 0.017 | – | –
28 | CN[C@@H]1[C@H](O)[C@H](NC)[C@H]2O[C@@]3(O)C(=O)C[C@@H](C)O[C@H]3O[C@@H]2[C@H]1O [SPECTINOMYCIN] | – | > 10 | > 10 | > 10 | – | > 30 | > 10 | > 10 | > 10
29 | CC[C@]1(O)C[C@@H]2CN(CCc3c([nH]c4ccccc34)[C@@](C(=O)OC)(c3cc4c(cc3OC)N(C)[C@H]3[C@@](O)(C(N)=O)[C@H](O)[C@]5(CC)C=CCN6CC[C@]43[C@@H]65)C2)C1 [VINDESINE] | – | > 30 | > 30 | > 30 | > 30 | – | – | – | > 30
30 | TOCOFERSOLAN | > 30 | > 30 | > 30 | > 30 | > 30 | – | – | – | –
